Experimental data reported in ChEMBL document CHEMBL1152688, “Bioorganic synthesis of a recombinant HIV-1 fusion inhibitor, SC35EK, with an N-terminal pyroglutamate capping group” (Bioorg Med Chem, 2009).
Non-standard residues stand in square brackets, D forms with d. Residues, ends and D or L forms follow the SMILES beside them. *: point of attachment. hSer(lactone) = O=C1OCC[C@@H]1N*; pGlu = O=C1CC[C@@H](C(=O)O)N1

How the values were obtained:
[1] = system: Human immunodeficiency virus 1; test: Antiviral activity against HIV1 NL4-3 infected in human HeLa cells expressing CD4/CCR5-LTR-beta-gal genes assessed as blockade of viral infection by X-gal staining based MAGI method; format: functional, organism-based; details: Human immunodeficiency virus 1, NL4-3, HeLa
Serum = test: Stability in mouse serum assessed as compound degradation by LC-MS analysis; format: ADME, cell-free

EC50 [1] [nM] | Stability (Serum) | Molecule
2.43 | Unstable | H-WEEWDKKIEEYTKKIEELIKKSEEQQKKNEEELKK-OH
0.5 | Stable | Ac-WEEWDKKIEEYTKKIEELIKKSEEQQKKNEEELKK-NH2
0.57 | Stable | CC[C@H](C)[C@H](NC(=O)[C@H](CC(C)C)NC(=O)[C@H](CCC(=O)O)NC(=O)[C@H](CCC(=O)O)NC(=O)[C@@H](NC(=O)[C@H](CCCCN)NC(=O)[C@H](CCCCN)NC(=O)[C@@H](NC(=O)[C@H](Cc1ccc(O)cc1)NC(=O)[C@H](CCC(=O)O)NC(=O)[C@H](CCC(=O)O)NC(=O)[C@@H](NC(=O)[C@H](CCCCN)NC(=O)[C@H](CCCCN)NC(=O)[C@H](CC(=O)O)NC(=O)[C@H](Cc1c[nH]c2ccccc12)NC(=O)[C@H](CCC(=O)O)NC(=O)[C@H](CCC(=O)O)NC(=O)[C@H](Cc1c[nH]c2ccccc12)NC(=O)[C@@H]1CCC(=O)N1)[C@@H](C)CC)[C@@H](C)O)[C@@H](C)CC)C(=O)N[C@@H](CCCCN)C(=O)N[C@@H](CCCCN)C(=O)N[C@@H](CO)C(=O)N[C@@H](CCC(=O)O)C(=O)N[C@@H](CCC(=O)O)C(=O)N[C@@H](CCC(N)=O)C(=O)N[C@@H](CCC(N)=O)C(=O)N[C@@H](CCCCN)C(=O)N[C@@H](CCCCN)C(=O)N[C@@H](CC(N)=O)C(=O)N[C@@H](CCC(=O)O)C(=O)N[C@@H](CCC(=O)O)C(=O)N[C@@H](CCC(=O)O)C(=O)N[C@@H](CC(C)C)C(=O)N[C@@H](CCCCN)C(=O)N[C@@H](CCCCN)C(=O)N[C@H]1CCOC1=O ([pGlu]WEEWDKKIEEYTKKIEELIKKSEEQQKKNEEELKK-{hSer(lactone)})
